Reference: ChEMBL document CHEMBL1130004, “Bioactivities and secondary structures of constrained analogues of human parathyroid hormone: cyclic lactams of the receptor binding region” (J Med Chem, 1997)
Positions of bridges follow the written chain, without caps; N, C: chain ends. Residues, ends and D or L forms follow the SMILES beside them.

species on record: Rattus norvegicus; assay: Adenylyl cyclase stimulating activity expressed as effective dose was measured in rat osteosarcoma 17/2 cells; type: functional, cell-based

Point of comparison: `CC[C@H](C)[C@H](NC(=O)[C@H](CCC(=O)O)NC(=O)[C@H](CO)NC(=O)[C@@H](NC(=O)[C@@H](N)CO)C(C)C)C(=O)N[C@@H](CCC(N)=O)C(=O)N[C@@H](CC(C)C)C(=O)N[C@@H](CCSC)C(=O)N[C@@H](Cc1c[nH]cn1)C(=O)N[C@@H](CC(N)=O)C(=O)N[C@@H](CC(C)C)C(=O)NCC(=O)N[C@@H](CCCCN)C(=O)N[C@@H](Cc1c[nH]cn1)C(=O)N[C@@H](CC(C)C)C(=O)N[C@@H](CC(N)=O)C(=O)N[C@@H](CO)C(=O)N[C@@H](CCSC)C(=O)N[C@@H](CCC(=O)O)C(=O)N[C@@H](CCCN=C(N)N)C(=O)N[C@H](C(=O)N[C@H]1CCC(=O)NCCCC[C@@H](C(=O)N[C@@H](CC(C)C)C(=O)N[C@@H](CC(C)C)C(=O)N[C@@H](CCC(N)=O)C(=O)N[C@@H](CC(=O)O)C(=O)N[C@H](C(N)=O)C(C)C)NC(=O)[C@H](CCCN=C(N)N)NC(=O)[C@H](CC(C)C)NC(=O)[C@H](Cc2c[nH]c3ccccc23)NC1=O)C(C)C` (H-SVSEIQLMHNLGKHLNSMERVEWLRKLLQDV-NH2; lactam 22-26), EC50 3.3 nM. Against it:
- H-SVSEIQLMHNLGKHLNSMERVEWLRKKLQD-NH2 — 6.1-fold higher, 20 nM
- CC[C@H](C)[C@H](NC(=O)[C@H](CCC(=O)O)NC(=O)[C@H](CO)NC(=O)[C@@H](NC(=O)[C@@H](N)CO)C(C)C)C(=O)N[C@@H](CCC(N)=O)C(=O)N[C@@H](CC(C)C)C(=O)N[C@@H](CCSC)C(=O)N[C@@H](Cc1c[nH]cn1)C(=O)N[C@@H](CC(N)=O)C(=O)N[C@@H](CC(C)C)C(=O)NCC(=O)N[C@@H](CCCCN)C(=O)N[C@@H](Cc1c[nH]cn1)C(=O)N[C@@H](CC(C)C)C(=O)N[C@@H](CC(N)=O)C(=O)N[C@@H](CO)C(=O)N[C@@H](CCSC)C(=O)N[C@@H](CCC(=O)O)C(=O)N[C@@H](CCCN=C(N)N)C(=O)N[C@H](C(=O)N[C@@H](CCC(=O)O)C(=O)N[C@@H](Cc1c[nH]c2ccccc12)C(=O)N[C@@H](CC(C)C)C(=O)N[C@@H](CCCN=C(N)N)C(=O)N[C@@H](CCCCN)C(=O)N[C@H]1CCCCNC(=O)C[C@@H](C(=O)N[C@H](C(N)=O)C(C)C)NC(=O)[C@H](CCC(N)=O)NC(=O)[C@H](CC(C)C)NC1=O)C(C)C — 12-fold higher, 40.3 nM
- H-SVSEIQLMHNLGKHLNSMERVEWLRKLLQD-NH2 — 6.1-fold higher, 20 nM
- CC[C@H](C)[C@H](NC(=O)[C@H](CCC(=O)O)NC(=O)[C@H](CO)NC(=O)[C@@H](NC(=O)[C@@H](N)CO)C(C)C)C(=O)N[C@@H](CCC(N)=O)C(=O)N[C@@H](CC(C)C)C(=O)N[C@@H](CCSC)C(=O)N[C@@H](Cc1c[nH]cn1)C(=O)N[C@@H](CC(N)=O)C(=O)N[C@@H](CC(C)C)C(=O)NCC(=O)N[C@@H](CCCCN)C(=O)N[C@@H](Cc1c[nH]cn1)C(=O)N[C@@H](CC(C)C)C(=O)N[C@@H](CC(N)=O)C(=O)N[C@@H](CO)C(=O)N[C@@H](CCSC)C(=O)N[C@@H](CCC(=O)O)C(=O)N[C@@H](CCCN=C(N)N)C(=O)N[C@H](C(=O)N[C@@H](CCC(=O)O)C(=O)N[C@@H](Cc1c[nH]c2ccccc12)C(=O)N[C@@H](CC(C)C)C(=O)N[C@@H](CCCN=C(N)N)C(=O)N[C@@H](CCCCN)C(=O)N[C@@H](CC(C)C)C(=O)N[C@@H](CC(C)C)C(=O)N[C@@H](CCC(N)=O)C(=O)N[C@@H](CC(=O)O)C(=O)N[C@H](C(N)=O)C(C)C)C(C)C — 3.5-fold higher, 11.5 nM
- CC[C@H](C)[C@H](NC(=O)[C@H](CCC(=O)O)NC(=O)[C@H](CO)NC(=O)[C@@H](NC(=O)[C@@H](N)CO)C(C)C)C(=O)N[C@@H](CCC(N)=O)C(=O)N[C@@H](CC(C)C)C(=O)N[C@@H](CCSC)C(=O)N[C@@H](Cc1c[nH]cn1)C(=O)N[C@@H](CC(N)=O)C(=O)N[C@@H](CC(C)C)C(=O)NCC(=O)N[C@@H](CCCCN)C(=O)N[C@@H](Cc1c[nH]cn1)C(=O)N[C@@H](CC(C)C)C(=O)N[C@@H](CC(N)=O)C(=O)N[C@@H](CO)C(=O)N[C@@H](CCSC)C(=O)N[C@@H](CCC(=O)O)C(=O)N[C@@H](CCCN=C(N)N)C(=O)N[C@H](C(=O)N[C@H]1CCC(=O)NCCCC[C@@H](C(=O)N[C@@H](CC(C)C)C(=O)N[C@@H](CC(C)C)C(=O)N[C@@H](CCC(N)=O)C(=O)N[C@@H](CC(=O)O)C(N)=O)NC(=O)[C@H](CCCN=C(N)N)NC(=O)[C@H](CC(C)C)NC(=O)[C@H](Cc2c[nH]c3ccccc23)NC1=O)C(C)C (H-SVSEIQLMHNLGKHLNSMERVEWLRKLLQD-NH2; lactam 22-26) — 6.1-fold higher, 20 nM
